# Assay results reported in patent US6211215A, “Heterocyclic compounds, their production and use” (Takeda Chemical Industries, Ltd., priority 1996, dated 2001).
# What was measured:
# MDA-MB-453 [1] = assay: In vitro inhibition of cell proliferation (2); assay type: cell-based; settings: Homo sapiens, 72 h; Breast cancer MDA-MB-453; 3 days; SRB
# Protocol: (§1) 100 μl (containing 2,000 cells) of a cell suspension of human breast cancer cell line MDA-MB-453 was seeded in each well of the 96-well microtiter plates. The cultures were incubated at 37° C. in a 5% carbon dioxide gas incubator. On the next day, 100 μl of the 2-fold serial dilution of each compound solution was added to each well and the mixtures were cultured for 3 days. The solution containing the compound was removed and the cells were washed with water. To the cells was added a 0.4% (W/V) dye SRB (dissolved in 1% acetic acid) solution to fix and stain the cell protein (Skehan P. et al., Journal of the National Cancer Institute Vol.82, pp.1107-1112, 1990). The dye solution was removed and the fixed and stained cell protein was washed. The protein-bound dye was extracted with 200 μl of 10 mM Tris buffer. The optical density of the extracted dye was determined at the wavelength of 540 nm to estimate the quantity of the cells in terms of the protein quantity. Designating the protein quantity in the control to which no compound solution was added as 100%, the proportion of the residual protein quantity in each treated group was calculated, and IC50, which was concentration of the compound required to inhibit the residual protein quantity to 50% the quantity of the control, was calculated.
# HER2 [2] = target: T1, HER2 (Homo sapiens, UniProt P04626); assay: Inhibition of phosphorylation of receptor tyrosine in human breast cancer cells (2), MCF-7, heregulin-stimulated; assay type: cell-based; parameters: Human breast cancer cell line MCF-7 was used; endogenous in cells; host or cells: MCF-7; settings: heregulin control = 100%, read-out: Phosphorylation of receptor tyrosine residue (%); for activity at 0.4 µM: MCF7, 0.4 μM; for activity at 1.6 µM: MCF7, 1.6 μM; for activity at 6.3 µM: MCF7, 6.3 μM; for activity at 25 µM: MCF7, 25 μM
# Protocol: Human breast cancer cell line MCF-7 was used. 1,000 μl of the cell suspension (250,000 cells) was seeded in each well of the 24-well plates. The culture were incubated at 37° C. in a 5% carbon dioxide gas incubator. On the next day, 100 μl of the 10-fold serial dilution of each compound solution was added to each well and, 2 hours later, 0.5 μg/ml of heregulin was added to it. After 5 minutes the extract solution was added to it to terminate the reaction, and the protein fraction was extracted. The protein was fractionated by the protein electrophoresis. The protein in the electrophoretic gel was transferred to a nylon filter. The filter was allowed to react with the phosphorylated tyrosine-specific antibody. The reaction product was fluorescence-labeled to expose a photofilm. The intensity of the exposure on the photofilm was quantitated by an image-analyzing apparatus. The proportion of the phosphorylation of HER2 tyrosine in the cells added with a compound solution of each concentration was calculated designating the phosphorylation of HER2 tyrosine in the heregulin-added cells as 100%.
# Target sequence in this assay (P04626 23-1255): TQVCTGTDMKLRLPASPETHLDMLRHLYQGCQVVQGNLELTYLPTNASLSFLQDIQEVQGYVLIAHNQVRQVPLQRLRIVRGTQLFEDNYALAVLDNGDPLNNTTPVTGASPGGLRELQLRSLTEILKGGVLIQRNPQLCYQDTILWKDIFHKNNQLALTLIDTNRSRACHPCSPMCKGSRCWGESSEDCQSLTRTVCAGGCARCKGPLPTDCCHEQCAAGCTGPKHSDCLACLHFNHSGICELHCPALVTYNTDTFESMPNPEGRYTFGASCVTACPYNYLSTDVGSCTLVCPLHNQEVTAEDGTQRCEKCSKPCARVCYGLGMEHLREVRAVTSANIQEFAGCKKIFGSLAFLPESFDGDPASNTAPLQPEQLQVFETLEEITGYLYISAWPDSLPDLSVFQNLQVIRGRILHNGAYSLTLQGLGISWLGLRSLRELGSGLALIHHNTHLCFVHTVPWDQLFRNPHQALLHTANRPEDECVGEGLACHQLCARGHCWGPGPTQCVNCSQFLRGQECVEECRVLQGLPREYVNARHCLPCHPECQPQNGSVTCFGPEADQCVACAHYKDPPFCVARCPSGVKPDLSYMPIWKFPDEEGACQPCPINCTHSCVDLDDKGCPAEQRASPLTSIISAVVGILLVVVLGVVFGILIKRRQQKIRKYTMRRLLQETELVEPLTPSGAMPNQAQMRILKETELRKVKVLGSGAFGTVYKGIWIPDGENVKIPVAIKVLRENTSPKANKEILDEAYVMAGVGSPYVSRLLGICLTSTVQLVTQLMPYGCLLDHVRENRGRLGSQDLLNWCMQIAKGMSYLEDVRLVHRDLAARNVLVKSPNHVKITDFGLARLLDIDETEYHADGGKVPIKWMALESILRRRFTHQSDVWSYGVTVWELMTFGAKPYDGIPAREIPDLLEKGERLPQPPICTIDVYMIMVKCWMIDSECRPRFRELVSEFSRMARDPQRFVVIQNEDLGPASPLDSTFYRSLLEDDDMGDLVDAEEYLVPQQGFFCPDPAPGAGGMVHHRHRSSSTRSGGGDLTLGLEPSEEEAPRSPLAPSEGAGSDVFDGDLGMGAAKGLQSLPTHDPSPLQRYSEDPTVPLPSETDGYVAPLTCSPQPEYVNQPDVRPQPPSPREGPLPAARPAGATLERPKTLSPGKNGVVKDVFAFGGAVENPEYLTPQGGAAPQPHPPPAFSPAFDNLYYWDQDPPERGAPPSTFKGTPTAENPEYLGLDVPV
# LNCaP = assay: Selective in vitro inhibition of breast cancer and prostate cancer cell growth; assay type: cell-based; settings: Homo sapiens, 72 h; Prostate cancer LNCaP; 3 days; SRB; read-out: IC50, inhibition of cell proliferation
# Protocol: (§2) 100 μl (containing 2,000 cells) of a cell suspension of various human cancer cell lines shown in [Table 7] was seeded in each well of the 96-well microtiter plates. The cells were incubated at 37° C. in a 5% carbon dioxide gas incubator. Next day, 100 μl of a 2 fold serial dilution of a compound solution was added to each well. The cultures were incubated for 3 days. The solution containing the compound was removed and the cells were washed with water. To the cells was added a 0.4% (V/W) dye SRB (dissolved in 1% acetic acid) solution to fix and stain the cell protein. The dye solution was removed and the fixed and stained cell protein was washed. The protein-bound dye was extracted with 200 μl of 10 mM Tris buffer. The optical density of the extracted dye was determined at the wavelength of 540 nm to estimate the quantity of the cells in terms of the protein quantity. Designating the protein quantity in the control to which no compound solution was added as 100%, the proportion of the residual protein quantity in each treated group was calculated, and IC50, which was the concentration of the compound required to inhibit the residual protein quantity to 50% the quantity of the control, was calculated.
# MDA-MB-453 [3] = assay: as above; assay type: cell-based; settings: Homo sapiens, 72 h; Breast cancer MDA-MB-453; 3 days; SRB; read-out: IC50, inhibition of cell proliferation
# Protocol: as §2
# MCF-7 = assay: as above; assay type: cell-based; settings: Homo sapiens, MCF7, 72 h; Breast cancer MCF-7; 3 days; SRB; read-out: IC50, inhibition of cell proliferation
# Protocol: as §2
# MRC5 = assay: as above; assay type: cell-based; settings: Homo sapiens, 72 h; Normal MRC5; 3 days; SRB; read-out: IC50, inhibition of cell proliferation
# Protocol: as §2
# PC3 = assay: as above; assay type: cell-based; settings: Homo sapiens, PC-3, 72 h; Prostate cancer PC3; 3 days; SRB; read-out: IC50, inhibition of cell proliferation
# Protocol: as §2
# [4] = test system: human squamous cell carcinoma MH-85; settings: Cancer Research, Vol.51, p.4430, 1991; cited from earlier work
# [5] = test system: human epidermal carcinoma cell line A431; settings: Journal of Antibiotics, Vol.39, p.170, 1986; cited from earlier work
# [6] = test system: human prostatic cancer cell line, LNCaP; assay: In vivo inhibition of prostate cancer (1); parameters: species or system male Balb/C-strain athymic nude mice; settings: for Tumor growth rate (%): oral, gained tumor volume vs control; for Inhibition of implanted tumor growth: LNCaP, athymic nude mice
# Protocol: 5,000,000 cells of human prostatic cancer cell line, LNCaP, were suspended in a gelmatrix solution and implanted subcutaneously at the breast in 8-week old male Balb/C-strain athymic nude mice (Friedman R. et al., Proceedings of the National Academy of Sciences of the U.S.A. Vol. 87, pp.6698-6702, 1990). 42 days (in the case of compound 72) or 57 days (in the case of compound 109) after the implantation, the diameters of tumors were measured. Five mice per group with similar tumor size were used for the experiment. Compounds 72 or 109 of the present invention was suspended in a 5% gum arabic solution (physiological saline) and administered orally twice daily in a dose of 60 mg/kg and 90 mg/kg body weight for 10 days. After the completion of the dosing, the diameters of tumor were measured. The tumor volume was calculated by the following formula: volume of tumor=longest diameter×shortest diameter×shortest diameter×1/2. The growth rate of tumors was obtained as the proportion of the gained tumor volume which was subtracted the initial volume from the final volume in the treated animals to the gained tumor volume which was subtracted the initial volume from the final volume in the control animals. The body weights of mice administered with compounds of the present invention were measured during the experiment to observe no decrease.
# [7] = test system: human breast cancer cell line, MDA-MB-453; assay: In vivo mammary cancer inhibiting effect (2); parameters: species or system female Balb/C strain athymic nude mice; settings: oral, gained tumor volume vs control
# Protocol: 5,000,000 cells of human breast cancer cell line, MDA-MB-453, were suspended in a gelmatrix solution. The suspension was subcutaneously implanted at the breast in 7-week-old female Balb/C strain athymic nude mice (Friedman R. et al., Proceedings of the National Academy of Sciences of the U.S.A. Vol. 87, pp.6698-6702, 1990). Twelve days after the implantation, the diameters of tumors were determined. For the experiment were used 5 mice per group with similar tumor size. Compound 72 or 109 of the present invention was suspended in a 5% gum arabic solution (physiological saline) and administered orally twice daily in dose of 60 mg/kg or 90 mg/kg body weight for 10 days. On the day when the dosing was ended, the diameters of tumors were measured. Tumor volume was calculated by the following formula: volume of tumor=longest diameter×shortest diameter×shortest diameter×1/2. The growth rate of tumors was obtained as the proportion of the gained tumor volume which was substracted the initial volume from the final volume in the treated animals to the gained tumor volume which was substracted the initial volume from the final volume in the control animals. The body weights of mice administered with compounds of the present invention were measured during the experiment to observe no decrease.
# T-47D = assay: Selective in vitro inhibition of breast cancer and prostate cancer cell growth; assay type: cell-based; settings: Homo sapiens, T47D, 72 h; Breast cancer T-47D; 3 days; SRB; read-out: IC50, inhibition of cell proliferation
# Protocol: as §2
# MDA-MB-453 [8] = assay: In vitro inhibition of cell proliferation (1); assay type: cell-based; settings: Homo sapiens, 72 h; Breast cancer MDA-MB-453; 3 days; SRB
# Protocol: as §1
# HER2 [9] = target: T1, HER2; assay: Inhibition of the activity of human growth factor receptor (HER2) tyrosine kinase; assay type: biochemical; parameters: the tyrosine kinase domain of the human HER2 gene was cloned; made in house; host or cells: insect cell line SF-21 (recombinant insect virus vector); settings: HER2 receptor type tyrosine kinase; ELISA with HER3 substrate; read-out: Concentration of inhibiting HER2 (IC50)
# Source text: As enzyme standard, the tyrosine kinase domain of the human HER2 gene was cloned to prepare the recombinant gene of insect virus vector, with which the insect cell line SF-21 was infected to produce an enzyme protein (Guy P. M. et al., Journal of Biological Chemistry Vol. 267, pp.13851-13856, 1992). As substrate, the phosphorylated tyrosine domain of the HER3 protein was cloned to prepare the recombinant gene of plasmid vector with which Escherichia Coli strain JM109 was infected to give an enzyme protein (Sierke S. L. et al., Biochemistry Vol. 32, pp.10102-10108, 1993). The enzymatic reaction was performed by the enzyme-linked immunological method which consisted of fixing the substrate protein in wells of a 96-well microtiter plate, adding the enzyme into the wells and quantitating phosphorylated tyrosine, which was the reaction product, by use of the anti-phosphorylated tyrosine antibody (Cleaveland J. S. et al., Analytical Biochemistry Vol. 190, pp249-253, 1990).
# Target sequence in this assay (P04626 720-987 limits assumed): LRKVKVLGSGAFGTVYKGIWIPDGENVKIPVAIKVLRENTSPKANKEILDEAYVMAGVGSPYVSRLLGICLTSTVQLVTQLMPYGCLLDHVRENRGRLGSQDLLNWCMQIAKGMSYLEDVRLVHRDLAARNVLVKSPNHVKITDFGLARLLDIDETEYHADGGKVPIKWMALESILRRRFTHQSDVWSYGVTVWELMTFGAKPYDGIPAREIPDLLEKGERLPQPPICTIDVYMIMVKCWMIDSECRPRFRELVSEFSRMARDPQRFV
# [10] = 120 mg/kg/day, 60 mg/kg twice daily for 10 days
# [11] = 180 mg/kg/day, 90 mg/kg twice daily for 10 days
smiles,measurement,setting,value
"c1csc(-c2nc3cc(COc4ccc(CCCCn5ccnc5)cc4)ccc3o2)c1 [Compound 80, 5-[4-[4-(1-imidazolyl)butyl]phenoxymethyl]-2-(2-thienyl)benzoxazole]",IC50,MDA-MB-453 [1],0.09 µM
same,activity at 0.4 µM,HER2 [2],46%
same,activity at 1.6 µM,HER2 [2],40%
same,activity at 6.3 µM,HER2 [2],34%
same,IC50,LNCaP,1.6 µM
same,IC50,MDA-MB-453 [3],0.09 µM
same,IC50,MCF-7,0.01 µM
same,IC50,MRC5,> 25 µM
same,IC50,PC3,6.5 µM
COc1cc2ncnc(Nc3cccc(Cl)c3)c2cc1OC [tyrphostin],Antitumor activity in vivo,[4],has antitumor activity
"c1csc(-c2nc(COc3ccc(CCCn4ccnc4)cc3)cs2)c1 [Compound 94, 4-[4-[3-(1-imidazolyl)propyl]phenoxymethyl]-2-(2-thienyl)thiazole]",IC50,MDA-MB-453 [1],4.8 µM
same,activity at 0.4 µM,HER2 [2],93%
same,activity at 1.6 µM,HER2 [2],86%
same,activity at 6.3 µM,HER2 [2],45%
same,activity at 25 µM,HER2 [2],25%
same,IC50,LNCaP,5.6 µM
same,IC50,MDA-MB-453 [3],4.8 µM
same,IC50,MCF-7,1.1 µM
same,IC50,MRC5,> 25 µM
same,IC50,PC3,15 µM
O=CN/C=C/c1cc(O)ccc1O [erbstatin],Inhibition of proliferation,[5],inhibits proliferation of human epidermal carcinoma cell line A431
"Cc1ccc(-c2nc(COc3ccc(CCCn4ccnc4)cc3)co2)s1 [Compound 109, 4-[4-[3-(1-imidazolyl)propyl]phenoxymethyl]-2-(5-methyl-2-thienyl)oxazole]",IC50,MDA-MB-453 [1],2.5 µM
same,activity at 0.4 µM,HER2 [2],92%
same,activity at 1.6 µM,HER2 [2],89%
same,activity at 6.3 µM,HER2 [2],43%
same,activity at 25 µM,HER2 [2],31%
same,Tumor growth rate (%),[6]; [10],28%
same,Inhibition of implanted tumor growth,[6],inhibiting tumor growth of hormone dependent prostate cancer LNCaP
same,IC50,LNCaP,11 µM
same,IC50,MDA-MB-453 [3],2.5 µM
same,IC50,MCF-7,0.19 µM
same,IC50,MRC5,> 25 µM
same,IC50,PC3,16 µM
same,Tumor growth rate (%),[7]; [10],35%
"c1csc(-c2nc(COc3ccc(CCCn4ccnc4)cc3)co2)c1 [Compound 72, 4-[4-[3-(1-imidazolyl)propyl]phenoxymethyl]-2-(2-thienyl)oxazole]",IC50,MDA-MB-453 [1],1.7 µM
same,activity at 0.4 µM,HER2 [2],96%
same,activity at 1.6 µM,HER2 [2],48%
same,activity at 6.3 µM,HER2 [2],19%
same,activity at 25 µM,HER2 [2],7%
same,Tumor growth rate (%),[6]; [10],91%
same,Tumor growth rate (%),[6]; [11],57%
same,Inhibition of implanted tumor growth,[6],inhibiting tumor growth of hormone dependent prostate cancer LNCaP
same,IC50,T-47D,3.5 µM
same,IC50,LNCaP,7.9 µM
same,IC50,MDA-MB-453 [3],1.7 µM
same,IC50,MCF-7,0.62 µM
same,IC50,MRC5,> 25 µM
same,IC50,PC3,9.5 µM
same,Tumor growth rate (%),[7]; [10],84%
same,Tumor growth rate (%),[7]; [11],71%
"C(=C\c1nc(COc2ccc(CCCCn3cncn3)cc2)co1)/c1ccccc1 [Compound 2, 1-[4-[4-[2-[(E)-2-phenylethenyl]-4-oxazolylmethoxy]phenyl]butyl]-1,2,4-triazole]",IC50,MDA-MB-453 [8],0.66 µM
same,IC50,HER2 [9],67 µM
